Data on one molecule can be found in patent US7005447B2, “Food product comprising hydroxymatairesinol” (Hormos Nutraceutical Oy Ltd., priority 1999, dated 2006).

Like-named read-outs stand apart in the source and are kept apart here.

The subject of assay [1] is tert-butylhydroperoxide-induced lipid peroxidation (t-BuOOH-LP) in rat liver microsomes. In words: Inhibition of tert-butylhydroperoxide-induced lipid peroxidation (t-BuOOH-LP), chemiluminescence. It is filed as biochemical. As for the experimental part: Inhibition of lipid peroxidation was evaluated on the basis of their potency to inhibit tert-butylhydroperoxide-induced lipid peroxidation (t-BuOOH-LP) in rat liver microsomes in vitro (Ahotupa et al. 1997). The test for the t-BuOOH-LP was carried out as follows: The buffer (50 mM sodium carbonate, pH 10.2, with 0.1 mM EDTA) was pipetted in a volume of 0.8 ml in the luminometer cuvette. Twenty microliters of diluted liver microsomes, final concentration 1.5 mg protein/ml, was added, followed by […] of luminol (0.5 mg/ml) and test chemicals. The test compounds were added to incubation mixtures in a small volume diluted in ethanol or dimethylsulphoxide (2% of incubation volume), and the lipid peroxidation potency was compared to that of the vehicle (ethanol or dimethyl sulphoxide). The reaction was initiated by 0.05 ml of 0.9 mM t-BuOOH at 33° C. Chemiluminescence was measured for about 45 min at 1 min cycles, and the area under curve (integral) was calculated. Chemiluminescence measurements were carried out using a Bio-Orbit 1251 Luminometer (Bio-Orbit, Turku, Finland) connected to a personal computer using dedicated software for the assays.

Assay [2] relates to low density lipoprotein (LDL) oxidation. Nature of the assay: Inhibition of LDL oxidation (CuCl2-induced, absorbance at 234 nm). Particulars: CuCl2, 3 hrs at +37° C.; read-out: Inhibition of LDL oxidation, IC-50. It counts as biochemical. As for the experimental part: Inhibition of LDL oxidation was estimated as described by Ahotupa et al, 1996. Shortly: LDL was isolated by precipitation with buffered heparin. After resuspendation in phosphate buffer, 20 mM CuCl2 was added and the mixture was incubated for 3 hrs at +37° C. After this, LDL lipids were extracted with chloroform-methanol, dried under nitrogen, redissolved in cyclohexane and analyzed spectrophotometrically at 234 nm. The intensity of absorbance is indicative of LDL oxidation. To test the ability of different compounds to prevent LDL oxidation, the compounds were added to the incubation mixture prior addition of CuCl2. Possible interference of test compounds with the assay procedure was excluded by measuring the absorption at 234 nm before and after the incubation period.

Another assay deals with T1, aromatase (Homo sapiens, UniProt P11511).
T1 construct: 800 μl cell suspension (1 million cells); endogenous in cells; host or cells: JEG-3 human choriocarcinoma cells
T1 sequence (P11511 1-503): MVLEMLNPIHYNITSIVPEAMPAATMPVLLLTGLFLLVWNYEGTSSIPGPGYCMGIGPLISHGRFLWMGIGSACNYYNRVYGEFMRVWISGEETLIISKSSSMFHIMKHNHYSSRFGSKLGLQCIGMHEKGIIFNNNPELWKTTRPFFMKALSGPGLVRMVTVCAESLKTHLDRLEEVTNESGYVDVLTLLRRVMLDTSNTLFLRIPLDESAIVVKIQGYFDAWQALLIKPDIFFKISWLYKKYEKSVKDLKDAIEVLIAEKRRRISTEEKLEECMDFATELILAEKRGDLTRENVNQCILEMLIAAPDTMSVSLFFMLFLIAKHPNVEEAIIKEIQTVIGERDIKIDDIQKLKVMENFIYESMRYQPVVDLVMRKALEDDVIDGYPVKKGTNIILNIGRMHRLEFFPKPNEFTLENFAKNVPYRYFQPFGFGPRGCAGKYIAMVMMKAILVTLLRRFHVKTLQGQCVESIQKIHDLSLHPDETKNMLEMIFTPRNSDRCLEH
In words: Aromatase inhibiting capacity in JEG-3 cells (3H-17β-estradiol formation from 3H-androstenedione). It is filed as cell-based. Particulars: 4 h incubation, FIG. 1. As for the experimental part:
The effects of HMR and structurally related lignans (enterolactone, enterodiol and 7-hydroxyenterolactone) were studied on formation of ^3H-17β-estradiol from ^3H-andostenedione in JEG-3 cells, human choriocarcinoma cell line. […] Cells were maintained in DMEM containing 10% fetal calf serum (FCS). The incubation mixture contained 50 μl ^3H-androst-4-ene, 3,17-dione (0.5 nM), 50 μl unlabelled androstenedione (0.5 nM), 100 μl test compounds (10 mM) and 800 μl cell suspension (1 million cells). After the incubation for 4 h, unlabelled carriers (androstenedione, testosterone, 17β-estradiol and estrone) were added. The steroids were extracted twice with 3.0 ml dichloromethane. […] The column system consisted of a guard column followed by a C18 150×3.9 mm ID analytical column (Technopak 10 C18 HPLC Technology; Wellington House, Cheshire, UK). The mobile phase was acetonitrile/water (35/65) and the flow rate was 1.2 ml/min. For in-line detection of the radioactive metabolites, the eluent of the HPCL column was continuously mixed with liquid scintillant and then monitored with in-line radioactivity detector.

Assay [3] has as its system uterine growth of immature rats. In words: Immature rat uterotropic test. It is filed as in vivo. Particulars: 7 days treatment, FIG. 3. The procedure:
The estrogenicity HMR was evaluated by the uterotropic assay in immature rats which was performed as described earlier (Jordan et al. 1977), with the exception of treatment time which was 7 days instead of 3 days in the reference study. The treatment time was longer because of the expected weak estrogenicity of the test compound. The treatment of immature rats with an aromatase inhibitor (MPV-2213 ad), which prevents biosynthesis of estradiol, was used as a methodological control for non-estrogen-stimulated uterus.

Assay [4] has as its system DMBA-induced mammary gland tumors. In words: Antitumor activity in rat DMBA-induced mammary cancer model. It counts as in vivo. As for the experimental part: Antitumor activity of HMR in rat mammary cancer was studied as described earlier ([…] et al. 1986). Fifty-day-old female Sprague-Dawley rats were given 12.0 mg DMBA (dimethylbentz[a]anthracene) by […]. After approximately 6 weeks palpable tumors could be detected, whereafter the width (w) and the length (1) of the tumors were measured once a week to determine the tumor volumes according to a formula V=(πw^2 l)/12. The rats were also weighed once a week. The rats were allocated in 3 different groups so that the total number of tumors in the beginning of the experiment was similar in each group: (1) Control group 8 animals, (2) HMR 3.0 mg/kg 7 animals, and (3) HMR 15.0 mg/kg 7 animals, one of which had to be killed before the end of the experiment. HMR was given per os starting 9 weeks after the DMBA-induction, i.e. 3 weeks after palpable tumors appeared, and was given daily for 7.5 weeks. At the end of the experiment the tumors were classified in groups according to their growth pattern: 1. Growing tumors (PD=progressive disease); 2. Non-growing, stabilized tumors (SD=stabilized disease, no change in tumor volume or regression less than 75%; 3. Regressing tumors (PR=partial response, regression of tumor volume more than 75%); 4. Disappeared tumors (CR=complete response, no palpable tumor).

With `COc1cc(CC2C(=O)OCC2C(O)c2ccc(O)c(OC)c2)ccc1O` (centres unmarked) [HMR, hydroxymatairesinol], the IC50 was 0.06 µM in assay [1] (Table 3 comparison with known antioxidants, read-out: Inhibition of lipid peroxidation, IC-50); 0.08 µM in assay [1] (lipid peroxidation inhibition test, rat liver microsomes, Table 2, read-out: Antioxidative capacity (t-BuOOH-LP) IC50); 2 µM in assay [2]. Further, the “Inhibition of aromatization (3H-17β-estradiol formation from 3H-androstenedione)” value at aromatase is listed as “no inhibitory effects”. Besides, the “Antiestrogenic effect (reduction of uterine weight gain)” value in assay [3] is given as “no antiestrogenic effect”. Also, the “Estrogenic effect on uterine weight gain” value in assay [3] is given as “no significant estrogenic effect”. Besides, the “Dose-dependency of antitumor action” value in assay [4] (HMR 3.0 versus 15.0 mg/kg) is listed as “no clear dose-dependency”. In addition, the “Antitumor effect (growing versus stable, regressing and disappeared tumors)” value in assay [4] (female Sprague-Dawley rats, HMR 3.0 and 15.0 mg/kg per os daily for 7.5 weeks, FIG. 4) was “statistically very significant”.
